The source of these data is PMC3705364, “Biochemical and Electrophysiological Characterization of Two Sea Anemone Type 1 Potassium Toxins from a Geographically Distant Population of Bunodosoma caissarum” (Marine Drugs, 2013).

What all share (type): cell-based
The target in experiment [1] is T1, rKV1.1 (Rattus norvegicus, UniProt P10499).
T1 construct: expressed in transfected cells; host or cells: Xenopus laevis oocytes injected with cRNA
The experiment can be described thus: Two-electrode voltage-clamp, X. laevis oocytes expressing rKV1.1. Particulars: mean ± standard error. Here is the method:
(§1) Stage V–VI of X. laevis oocytes were harvested by partial ovariectomy under anesthesia (3-aminobenzoic acid ethyl ester methanesulfonate salt, 0.5 g/L from Sigma-Aldrich Co., Saint Louis, MO, USA). The oocytes were defolliculated for 2 h by treatment with 2 mg/mL collagenase (Sigma-Aldrich Co., Saint Louis, MO, USA) in Ca^2+ free ND96 solution (in mM: 96 NaCl; 2 KCl; 1 MgCl2; 5 HEPES adjusted pH 7.4). For the expression of KV channels (KV1.1–KV1.6, KV2.1, KV3.1, KV4.2, KV4.3, hERG and the insect channel Shaker IR), the linearized plasmids were transcribed using the T7 or SP6 mMessage-mMachine transcription kit (Ambion, Austin, TX, USA). Oocytes were injected with 50 nL of cRNA at a concentration of 1 ng/nL using a microinjector (Drummond Scientific, Broomall, PA, USA). The oocytes were maintained in a ND96 solution (in mM: 96 NaCl, 2 KCl, 1.8 CaCl2, 2 MgCl2 and 5 HEPES; adjusted pH 7.4), supplemented with 50 µg/mL gentamicin sulfate.
(§2) Two-electrode voltage-clamp recordings were performed at room temperature (18–22 °C) using a Geneclamp 500 amplifier (Molecular Devices, Sunnyvale, CA, USA) controlled by a pClamp data acquisition system (Axon Instruments, Union City, CA, USA). Whole-cell currents from oocytes were recorded from 1 to 3 days after injection. Bath solution was the same ND96 solution described above. Voltage and current electrodes were filled with 3 M KCl. Resistances of both electrodes were kept between 0.8 and 1.0 ΩM. The elicited currents were filtered at 500 Hz using a four-pole lowpass Bessel filter. Leak subtraction was performed using a −P/4 protocol. KV1.1–KV1.6 and Shaker IR currents were evoked by 500 ms depolarizations to 0 mV, followed by a 500 ms pulse to −50 mV, from a holding potential of −90 mV. Current traces of hERG channels were elicited by applying a +40 mV prepulse for 2 s, followed by a step to −120 mV for 2 s. KV3.1, KV 4.2 and KV4.3 currents were elicited by 500 ms pulses to +20 mV from a holding potential of −90 mV. To assess the concentration-response relationships, data were fitted with the Hill equation: y = 100/[1 + (EC50/[toxin])h] (1) where y is the amplitude of the toxin-induced effect, EC50 is the toxin concentration at half maximal efficacy, [toxin] is the toxin concentration and h is the Hill coefficient. In order to investigate the current-voltage relationship, current traces were evoked by 10 mV depolarization steps from a holding potential of −90 mV. […]
(§3) Comparison of two sample means was made using a paired Student’s t test (p < 0.05). […] All data were analyzed using Clampfit 10.3 (Molecular Devices, Sunnyvale, CA, USA) and Origin 7.5 software (Origin Lab., Northampton, MA, USA).
(In general: Two-electrode voltage clamp is typically applied to oocytes expressing channels or transporters.)

For experiment [2], the target named is T2, rKV1.2 (Rattus norvegicus, UniProt P63142).
T2 construct: expressed in transfected cells; host or cells: Xenopus laevis oocytes injected with cRNA
T2 sequence (P63142 whole entry): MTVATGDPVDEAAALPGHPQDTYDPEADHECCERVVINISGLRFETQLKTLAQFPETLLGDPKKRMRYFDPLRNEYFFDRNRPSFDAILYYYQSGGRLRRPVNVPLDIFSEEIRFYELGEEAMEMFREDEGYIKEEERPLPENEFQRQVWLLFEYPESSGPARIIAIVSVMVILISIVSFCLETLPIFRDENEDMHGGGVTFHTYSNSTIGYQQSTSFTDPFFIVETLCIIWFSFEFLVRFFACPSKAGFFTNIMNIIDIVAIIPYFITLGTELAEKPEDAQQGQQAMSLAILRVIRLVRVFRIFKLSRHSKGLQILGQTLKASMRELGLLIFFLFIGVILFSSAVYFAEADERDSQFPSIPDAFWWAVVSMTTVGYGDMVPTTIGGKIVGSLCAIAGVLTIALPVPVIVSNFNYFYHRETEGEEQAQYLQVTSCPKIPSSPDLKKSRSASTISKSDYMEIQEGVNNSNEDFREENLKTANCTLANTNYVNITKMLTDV
In words: Two-electrode voltage-clamp, X. laevis oocytes expressing rKV1.2. The procedure:
as §1, §2, §3

Experiment [3] deals with T3, rKV1.6 (Rattus norvegicus, UniProt P17659).
T3 construct: expressed in transfected cells; host or cells: Xenopus laevis oocytes injected with cRNA
T3 sequence (P17659 whole entry): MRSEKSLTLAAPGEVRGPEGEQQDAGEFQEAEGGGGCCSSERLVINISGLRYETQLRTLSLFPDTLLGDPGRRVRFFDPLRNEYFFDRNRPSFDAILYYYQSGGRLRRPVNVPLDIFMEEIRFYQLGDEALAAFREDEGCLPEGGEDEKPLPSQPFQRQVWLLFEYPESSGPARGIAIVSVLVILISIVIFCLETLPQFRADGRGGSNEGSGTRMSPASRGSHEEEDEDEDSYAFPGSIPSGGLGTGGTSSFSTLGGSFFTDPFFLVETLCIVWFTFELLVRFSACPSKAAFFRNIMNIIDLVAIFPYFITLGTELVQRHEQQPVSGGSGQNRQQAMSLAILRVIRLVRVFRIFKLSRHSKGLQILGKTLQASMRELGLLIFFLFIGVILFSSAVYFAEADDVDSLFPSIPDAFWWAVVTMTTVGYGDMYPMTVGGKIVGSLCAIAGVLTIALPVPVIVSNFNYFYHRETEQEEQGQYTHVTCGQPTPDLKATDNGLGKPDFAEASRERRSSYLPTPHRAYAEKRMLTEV
In words: Two-electrode voltage-clamp, X. laevis oocytes expressing rKV1.6. Particulars: mean ± standard error. Here is the method:
as §1, §2, §3

Where [4] appears, read: TEVC, 18–22 °C, ND96 pH 7.4, 500 ms depolarizations to 0 mV from −90 mV, Hill fit, n ≥ 3.

Structures are written as SMILES. Where a SMILES comes first, the peptide text is derived from it. Bridges are numbered along the chain shown (N, C = ends).

T1 sequence (P10499 whole entry): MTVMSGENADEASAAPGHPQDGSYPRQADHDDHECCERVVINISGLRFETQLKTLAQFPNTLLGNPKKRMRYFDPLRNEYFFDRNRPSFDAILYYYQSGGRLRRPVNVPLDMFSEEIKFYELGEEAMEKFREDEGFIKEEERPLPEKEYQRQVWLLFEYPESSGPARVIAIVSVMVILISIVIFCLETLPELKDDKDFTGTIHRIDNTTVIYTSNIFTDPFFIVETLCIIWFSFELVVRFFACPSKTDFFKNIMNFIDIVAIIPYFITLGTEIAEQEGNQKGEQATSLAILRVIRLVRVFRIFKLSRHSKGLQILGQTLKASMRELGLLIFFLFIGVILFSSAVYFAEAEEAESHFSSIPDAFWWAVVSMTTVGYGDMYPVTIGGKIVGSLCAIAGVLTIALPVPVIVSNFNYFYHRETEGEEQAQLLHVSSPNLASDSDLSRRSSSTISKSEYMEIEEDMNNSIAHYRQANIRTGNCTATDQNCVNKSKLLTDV

On to `CC(C)C[C@@H]1NC(=O)[C@H](CCCCN)NC(=O)[C@H](C)NC(=O)[C@H](Cc2c[nH]cn2)NC(=O)[C@H](CCC(N)=O)NC(=O)[C@@H]2CSSC[C@@H]3NC(=O)[C@H](CC(N)=O)NC(=O)[C@H](C)NC(=O)[C@H](CCCNC(=N)N)NC(=O)[C@H](Cc4ccc(O)cc4)NC(=O)[C@H](CCCCN)NC(=O)[C@H](CCC(N)=O)NC(=O)[C@H](CO)NC(=O)[C@H](CC(N)=O)NC(=O)[C@H](CCCCN)NC(=O)[C@H](CSSC[C@H](NC(=O)[C@H]([C@@H](C)O)NC(=O)[C@H](CCCCN)NC(=O)[C@H](C)NC3=O)C(=O)NCC(=O)N3CCC[C@H]3C(=O)N[C@H](C(=O)O)CSSC[C@H](NC(=O)[C@H](C)N)C(=O)N[C@@H](CCCCN)C(=O)N[C@@H](CC(=O)O)C(=O)NCC(=O)N[C@@H](Cc3ccccc3)C(=O)N3CCC[C@H]3C(=O)N[C@@H]([C@@H](C)O)C(=O)N[C@@H](C)C(=O)N[C@@H]([C@@H](C)O)C(=O)N2)NC(=O)[C@H](CC(N)=O)NC(=O)CNC(=O)[C@H](C(C)C)NC1=O` [BcsTx2] (H-ACKDGFPTATCQHAKLVGNCKNSQKYRANCAKTCGPC-OH; disulfide 2-37, 11-30, 20-34; C-terminus assumed), for which the inhibition – broadly, the drop in the measured response relative to a control, in per cent – at 3 µM was determined as 96% in experiment [1] (3 µM, n ≥ 3, read-out: inhibition of rKV1.1 current); 100% in experiment [2] (3 µM, n ≥ 3, read-out: inhibition of rKV1.2 current); 98% in experiment [3] (3 µM, n ≥ 3, read-out: inhibition of rKV1.6 current). Also, the IC50 (in general, the midpoint of a concentration-inhibition curve) is 14.4 ± 2.61 nM in experiment [1] (setting [4]); 80.4 ± 1.44 nM in experiment [2] (TEVC, 18–22 °C, ND96 pH 7.4, 500 ms depolarizations to 0 mV from −90 mV, Hill fit, mean ± standard error, n ≥ 3); 7.76 ± 1.9 nM in experiment [3] (setting [4]).
